This test has as its target Hematopoietic prostaglandin D synthase (Homo sapiens, UniProt O60760). In words: Fluorescence Polarization Binding Assay (FPBA): This assay essentially is available from Cayman Chemical Company as Catalog item #600007. The test data reported for the aforementioned Examples (H-PGDS FPBA IC50) were generated using a 96-well, instead of the 384-well, format.Detection analyte and H-PGDS-MBP fusion enzyme were incubated in the presence of reduced glutathione (5 mM) for 60-90 minutes at room temperature and FP was measured using a TECAN SAFIRE 2 plate reader equipped with absorbance, fluorescence, fluorescence polarization and FRET capabilities. Assays were performed in 96-well microtiter plates in 100 µL of total sample volume. Excitation and emission wavelengths appropriate for the employed detection analyte were used.

These results are taken from ChEMBL document CHEMBL3886227, “Multiheteroaryl compounds as inhibitors of H-PGDS and their use for treating prostaglandin D2 mediated diseases” (2015).

Hematopoietic prostaglandin D synthase, sequence (O60760 whole entry, the tested form may be a part): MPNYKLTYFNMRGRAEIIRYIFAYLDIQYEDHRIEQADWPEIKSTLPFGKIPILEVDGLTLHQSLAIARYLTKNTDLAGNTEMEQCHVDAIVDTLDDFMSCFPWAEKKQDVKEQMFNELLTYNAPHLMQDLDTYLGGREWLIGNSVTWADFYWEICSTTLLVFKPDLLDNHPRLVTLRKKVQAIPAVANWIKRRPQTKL

Usually IC50 stands for the concentration that gives 50% inhibition. Regarding `COC(=O)c1cc(-c2cnc(Oc3ccccc3)nc2)[nH]n1`, the IC50 was found to be 2000 nM.
